According to PMC4420714 (Peptides, 2015):
Entries after “also recorded” stand apart in the source; their conditions may differ.

Columns and labels:
VPAC1-R [1] = target: T1, VPAC1-R (Homo sapiens, UniProt P32241); experiment: [3H]cAMP generation in VPAC1-R/PANC-1 cells; type: cell-based; details: for [3H]cAMP VPAC1-R/PANC-1 % max (agonist class): relative to PACAP38, up to 1 µM
T1 sequence (P32241 31-457): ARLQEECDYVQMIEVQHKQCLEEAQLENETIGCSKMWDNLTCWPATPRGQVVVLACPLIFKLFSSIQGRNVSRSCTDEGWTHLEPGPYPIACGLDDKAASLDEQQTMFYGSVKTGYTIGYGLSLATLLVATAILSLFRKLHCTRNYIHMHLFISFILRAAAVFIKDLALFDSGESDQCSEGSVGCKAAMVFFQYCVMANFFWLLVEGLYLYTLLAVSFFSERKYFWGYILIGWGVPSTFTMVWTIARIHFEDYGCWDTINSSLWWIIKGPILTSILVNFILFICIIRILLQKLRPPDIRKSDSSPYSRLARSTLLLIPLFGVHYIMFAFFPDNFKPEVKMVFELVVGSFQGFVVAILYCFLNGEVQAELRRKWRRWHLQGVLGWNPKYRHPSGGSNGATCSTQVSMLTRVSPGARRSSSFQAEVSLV

VPAC1-R [2] = target: T1, VPAC1-R; experiment: Binding of 125I-VIP to VPAC1-R/PANC-1 cells; details: ratio of binding IC50, analog vs native parent peptide
VPAC2-R [3] = target: T2, VPAC2-R (Homo sapiens, UniProt P41587); experiment: [3H]cAMP generation in VPAC2-R/PANC-1 cells; type: cell-based; details: for [3H]cAMP VPAC2-R/PANC-1 % max (agonist class): VPAC2-R/PANC-1 cells, relative to PACAP38, up to 1 µM
T2 sequence (P41587 24-438): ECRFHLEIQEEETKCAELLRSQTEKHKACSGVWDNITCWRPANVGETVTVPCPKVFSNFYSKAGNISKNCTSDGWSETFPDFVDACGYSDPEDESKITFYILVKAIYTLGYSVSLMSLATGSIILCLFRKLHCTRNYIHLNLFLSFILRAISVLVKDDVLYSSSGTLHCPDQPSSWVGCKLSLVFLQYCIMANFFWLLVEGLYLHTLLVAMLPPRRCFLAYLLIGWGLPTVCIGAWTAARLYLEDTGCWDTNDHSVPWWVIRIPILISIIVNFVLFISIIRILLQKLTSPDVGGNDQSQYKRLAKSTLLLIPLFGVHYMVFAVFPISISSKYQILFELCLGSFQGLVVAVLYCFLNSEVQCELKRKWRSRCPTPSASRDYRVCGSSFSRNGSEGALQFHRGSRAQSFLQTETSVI

VPAC1-R [4] = target: T1, VPAC1-R; experiment: [3H]cAMP generation in T47D cells; type: cell-based; details: for [3H]cAMP T47D % max (agonist class): relative to PACAP38, up to 1 µM
VPAC2-R [5] = target: T2, VPAC2-R; experiment: Binding of 125I-PACAP27 to VPAC2-R/PANC-1 cells; details: ratio of binding IC50, analog vs native parent peptide
PAC1-R [6] = target: T3, PAC1-R (Homo sapiens, UniProt P41586); experiment: Binding of 125I-PACAP27 to PAC1-R stably transfected NIH 3T3 cells; details: binding IC50 ratio
T3 sequence (P41586 21-468): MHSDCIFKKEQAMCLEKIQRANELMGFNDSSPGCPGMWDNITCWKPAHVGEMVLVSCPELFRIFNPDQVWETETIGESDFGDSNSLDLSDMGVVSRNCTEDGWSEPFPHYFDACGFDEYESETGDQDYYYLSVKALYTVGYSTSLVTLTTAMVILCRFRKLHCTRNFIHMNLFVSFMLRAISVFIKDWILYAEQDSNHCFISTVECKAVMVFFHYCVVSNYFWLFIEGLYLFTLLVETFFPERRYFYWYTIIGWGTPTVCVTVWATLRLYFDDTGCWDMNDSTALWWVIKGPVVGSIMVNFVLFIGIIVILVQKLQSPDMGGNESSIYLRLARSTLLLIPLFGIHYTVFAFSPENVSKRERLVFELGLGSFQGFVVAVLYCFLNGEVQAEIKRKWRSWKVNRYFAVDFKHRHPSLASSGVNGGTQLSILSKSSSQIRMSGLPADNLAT

PAC1-R [7] = target: T3, PAC1-R; experiment: [3H]cAMP generation in PAC1-R cells; type: cell-based

decrease in affinity for VPAC1-R/PANC-1 cells compared to native PACAP38 (or PACAP27, VIP) (VPAC1-R [2])	[3H]cAMP T47D % max (agonist class) (VPAC1-R [4])	decrease in affinity for VPAC2-R/PANC-1 cells compared to native PACAP38 (or PACAP27, VIP) (VPAC2-R [5])	Substance	[3H]cAMP VPAC2-R/PANC-1 % max (agonist class) (VPAC2-R [3])	also measured
–	–	15–500 fold	[Pip^3]PACAP38 [Peptide P26]	no agonist activity; also recorded: No Act	–
100–500 fold	Ag (1 µM, 16)	6–132 fold	[Pro^3]PACAP27 [Peptide P5]	no agonist activity; also recorded: No Act	[3H]cAMP VPAC1-R/PANC-1 % max (agonist class) (VPAC1-R [1]; VPAC1-R/PANC-1 cells): Ag (1 µM, 23); [3H]cAMP T47D % max, agonist activity at 1 µM, still increasing (VPAC1-R [4]): Ag (1 µM, 16) % max
–	–	15–500 fold	[Pro^3]PACAP38 [Peptide P18]	Ag (1 µM, 26)	–
100–500 fold	Ag (1 µM, 69)	6–132 fold	[Sar^3]PACAP27 [Peptide P6]	no agonist activity; also recorded: No Act	[3H]cAMP T47D % max, agonist activity at 1 µM, still increasing (VPAC1-R [4]): Ag (1 µM, 69) % max
–	–	15–500 fold	[Sar^3]PACAP38 [Peptide P19]	Ag (1 µM, 35)	–
100–500 fold	No Act	6–132 fold	[Sar^4]PACAP27 [Peptide P22]	no agonist activity; also recorded: No Act	[3H]cAMP VPAC1-R/PANC-1 % max (agonist class) (VPAC1-R [1]; VPAC1-R/PANC-1 cells): no agonist activity; also recorded: No Act
–	–	50–400 fold	[β-Ala^3,Ala^16,17]PACAP38 [Peptide P21]	no agonist activity; also recorded: No Act	–

More lines, now with the values behind:

Substance	decrease in affinity for VPAC1-R/PANC-1 cells compared to native PACAP38 (or PACAP27, VIP) (VPAC1-R [2])	[3H]cAMP T47D % max (agonist class) (VPAC1-R [4])	decrease in affinity for VPAC2-R/PANC-1 cells compared to native PACAP38 (or PACAP27, VIP) (VPAC2-R [5])	[3H]cAMP VPAC2-R/PANC-1 % max (agonist class) (VPAC2-R [3])	also measured
[N-Ac-His^1,Pip^3,Aib^16,Ala^17]PACAP27 [Peptide P8]	> 1,000 fold	No Act	–	Ag (1 µM, 13)	[3H]cAMP VPAC1-R/PANC-1 % max of partial agonist (VPAC1-R [1]; VPAC1-R/PANC-1 cells, partial agonist maximum): pAg (24) % max; [3H]cAMP VPAC1-R/PANC-1 % max (agonist class) (VPAC1-R [1]; VPAC1-R/PANC-1 cells): partial agonists; also recorded: pAg (24)
[N-Ac-His^1,Pip^3]PACAP38 [Peptide P27]	–	–	15–500 fold	Ag (1 µM, 18)	–
[Pip^3,Aib^16,28,Ala^17,20,Lys^34,D-Lys^38]PACAP38 [Peptide P41]	–	–	–	no agonist activity; also recorded: No Act	–
[Pip^3,Aib^16,28,Ala^17,21,Lys^34,D-Lys^38]PACAP38 [Peptide P40]	–	–	–	no agonist activity; also recorded: No Act	–
[Pip^3,Aib^16,28,Ala^17,Lys^34,D-Lys^38]PACAP38 [Peptide P35]	–	–	50–400 fold	Ag (1 µM, 33)	–
[Pip^3,Aib^16,Ala^17]PACAP27 [Peptide P7]	> 1,000 fold	No Act	–	no agonist activity; also recorded: No Act	[3H]cAMP VPAC1-R/PANC-1 % max (agonist class) (VPAC1-R [1]; VPAC1-R/PANC-1 cells): no agonist activity; also recorded: No Act
[Pip^3,Ala^14,17,Aib^16,28,Lys^34,D-Lys^38]PACAP38 [Peptide P39]	–	–	–	no agonist activity; also recorded: No Act	–
[Pip^3,Ala^15,17,Aib^16,28,Lys^34,D-Lys^38]PACAP38 [Peptide P38]	–	–	–	no agonist activity; also recorded: No Act	–
vasoactive intestinal peptide [VIP, reference compound]	–	–	–	–	lower affinity for PAC1-R cells than VPAC1-R/PANC-1 cells (PAC1-R [6]; VPAC1-R preferring): > 1,000 fold; lower affinity for PAC1-R cells than VPAC2-R/PANC-1 cells (PAC1-R [6]; VPAC2-R preferring): > 400 fold; maximal increase in cAMP, VPAC1-R/PANC-1 cells (VPAC1-R [1]): 5.0 ± 0.7 fold; maximal increase in cAMP, VPAC2-R/PANC-1 cells (VPAC2-R [3]): 6.5 ± 2.0 fold; [3H]cAMP PAC1-R % max (agonist class) (PAC1-R [7]): No Act; less potent than PACAP38 and PACAP27 at stimulating PAC1-R cells (PAC1-R [7]; cAMP generation): > 800 fold; maximal increase in cAMP, PAC1-R cells (PAC1-R [7]; over control): 4.1 ± 1.5 fold
